Source: article PMC6164480, “A New Synthetic Histone Deacetylase Inhibitor, MHY2256, Induces Apoptosis and Autophagy Cell Death in Endometrial Cancer Cells via p53 Acetylation” (International Journal of Molecular Sciences, 2018)

Biological target: T1, SIRT1 (Homo sapiens, UniProt Q96EB6)
T1 sequence (Q96EB6 2-747): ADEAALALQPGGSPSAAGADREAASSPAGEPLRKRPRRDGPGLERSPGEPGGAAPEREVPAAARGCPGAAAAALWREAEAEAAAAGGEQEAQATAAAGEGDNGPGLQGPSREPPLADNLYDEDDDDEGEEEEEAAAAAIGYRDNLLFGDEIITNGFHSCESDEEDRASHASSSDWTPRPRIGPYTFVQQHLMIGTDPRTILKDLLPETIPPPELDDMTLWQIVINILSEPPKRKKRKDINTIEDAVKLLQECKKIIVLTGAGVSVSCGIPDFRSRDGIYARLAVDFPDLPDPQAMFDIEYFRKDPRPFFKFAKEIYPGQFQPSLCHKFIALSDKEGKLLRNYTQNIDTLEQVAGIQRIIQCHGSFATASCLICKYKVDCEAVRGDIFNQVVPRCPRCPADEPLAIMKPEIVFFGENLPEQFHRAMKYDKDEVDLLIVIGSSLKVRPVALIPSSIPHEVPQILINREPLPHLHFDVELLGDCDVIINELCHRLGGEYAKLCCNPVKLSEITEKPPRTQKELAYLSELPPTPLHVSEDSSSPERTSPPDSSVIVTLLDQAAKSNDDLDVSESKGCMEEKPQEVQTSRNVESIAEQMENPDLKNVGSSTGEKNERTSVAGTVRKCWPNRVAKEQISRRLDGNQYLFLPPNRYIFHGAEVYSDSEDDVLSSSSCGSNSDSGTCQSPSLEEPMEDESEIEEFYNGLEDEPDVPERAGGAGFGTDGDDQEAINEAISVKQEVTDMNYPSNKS
Assay: SensoLyte […] FRET fluorimetric SIRT1 enzyme activity assay kit
Type: biochemical

| Structure (SMILES) | IC50 [µM] |
| --- | --- |
| CC(C(=O)Nc1cccc(/N=C/c2c(O)ccc3ccccc23)c1)c1ccccc1 (centres unmarked) [salermide] | 4.8 |
| CC(C)(C)c1cc(C=C2C(=O)NC(=S)NC2=O)cc(C(C)(C)C)c1O [MHY2256, 5-(3,5-di-tert-butyl-4-hydroxybenzylidene)-2-thioxodihydropyrimidine-4,6(1H,5H)-dione] | 1.89 |
